38 compounds from patent US20230416248A1, “COMPOUNDS AND USES THEREOF” (Foghorn Therapeutics Inc., priority 2020, published 2023) can be followed below.

The target in one test is T1, BRG-1 (Homo sapiens, UniProt P51532).
T1 construct: made in house; host or cells: High Five insect cells
In words: ATPase catalytic activity of BRG-1, ADP-Glo in vitro biochemical assay. As to conditions: ATPase catalytic activity, ADP-Glo; 30 nM BRG-1, 400 μM ATP; read-out: BRG1 IC50. In outline: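 BRG-1 ATPase activity was measured in vitro by ADP-Glo. After the reaction, ADP-Glo Reagent depleted unconsumed ATP (40 min, room temperature), then Kinase Detection Reagent converted product ADP to ATP (60 min, room temperature), and luciferase luminescence was read.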
(In general: ADP-Glo turns the ADP formed in a reaction into a luminescent signal.)

The target in the next test is T2, BRM (Homo sapiens, UniProt P51531).
T2 construct: made in house; host or cells: High Five insect cells
In words: ATPase catalytic activity of BRM, ADP-Glo in vitro biochemical assay. To be noted: for IC50: ATPase catalytic activity, ADP-Glo, 30 nM BRM, 400 μM ATP; for Ratio*: ratio of BRG1 IC50 to BRM IC50. In outline:
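Recombinant BRM (30 nM) hydrolysed 400 μM ATP with 20 nM salmon sperm DNA in pH 8 Tris buffer containing 20 mM MgCl2, 50 mM NaCl, 0.1% Tween-20 and 1 mM DTT, 1 h at room temperature. ADP formed was quantified by ADP-Glo luminescence.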

T2 sequence (P51531 whole entry): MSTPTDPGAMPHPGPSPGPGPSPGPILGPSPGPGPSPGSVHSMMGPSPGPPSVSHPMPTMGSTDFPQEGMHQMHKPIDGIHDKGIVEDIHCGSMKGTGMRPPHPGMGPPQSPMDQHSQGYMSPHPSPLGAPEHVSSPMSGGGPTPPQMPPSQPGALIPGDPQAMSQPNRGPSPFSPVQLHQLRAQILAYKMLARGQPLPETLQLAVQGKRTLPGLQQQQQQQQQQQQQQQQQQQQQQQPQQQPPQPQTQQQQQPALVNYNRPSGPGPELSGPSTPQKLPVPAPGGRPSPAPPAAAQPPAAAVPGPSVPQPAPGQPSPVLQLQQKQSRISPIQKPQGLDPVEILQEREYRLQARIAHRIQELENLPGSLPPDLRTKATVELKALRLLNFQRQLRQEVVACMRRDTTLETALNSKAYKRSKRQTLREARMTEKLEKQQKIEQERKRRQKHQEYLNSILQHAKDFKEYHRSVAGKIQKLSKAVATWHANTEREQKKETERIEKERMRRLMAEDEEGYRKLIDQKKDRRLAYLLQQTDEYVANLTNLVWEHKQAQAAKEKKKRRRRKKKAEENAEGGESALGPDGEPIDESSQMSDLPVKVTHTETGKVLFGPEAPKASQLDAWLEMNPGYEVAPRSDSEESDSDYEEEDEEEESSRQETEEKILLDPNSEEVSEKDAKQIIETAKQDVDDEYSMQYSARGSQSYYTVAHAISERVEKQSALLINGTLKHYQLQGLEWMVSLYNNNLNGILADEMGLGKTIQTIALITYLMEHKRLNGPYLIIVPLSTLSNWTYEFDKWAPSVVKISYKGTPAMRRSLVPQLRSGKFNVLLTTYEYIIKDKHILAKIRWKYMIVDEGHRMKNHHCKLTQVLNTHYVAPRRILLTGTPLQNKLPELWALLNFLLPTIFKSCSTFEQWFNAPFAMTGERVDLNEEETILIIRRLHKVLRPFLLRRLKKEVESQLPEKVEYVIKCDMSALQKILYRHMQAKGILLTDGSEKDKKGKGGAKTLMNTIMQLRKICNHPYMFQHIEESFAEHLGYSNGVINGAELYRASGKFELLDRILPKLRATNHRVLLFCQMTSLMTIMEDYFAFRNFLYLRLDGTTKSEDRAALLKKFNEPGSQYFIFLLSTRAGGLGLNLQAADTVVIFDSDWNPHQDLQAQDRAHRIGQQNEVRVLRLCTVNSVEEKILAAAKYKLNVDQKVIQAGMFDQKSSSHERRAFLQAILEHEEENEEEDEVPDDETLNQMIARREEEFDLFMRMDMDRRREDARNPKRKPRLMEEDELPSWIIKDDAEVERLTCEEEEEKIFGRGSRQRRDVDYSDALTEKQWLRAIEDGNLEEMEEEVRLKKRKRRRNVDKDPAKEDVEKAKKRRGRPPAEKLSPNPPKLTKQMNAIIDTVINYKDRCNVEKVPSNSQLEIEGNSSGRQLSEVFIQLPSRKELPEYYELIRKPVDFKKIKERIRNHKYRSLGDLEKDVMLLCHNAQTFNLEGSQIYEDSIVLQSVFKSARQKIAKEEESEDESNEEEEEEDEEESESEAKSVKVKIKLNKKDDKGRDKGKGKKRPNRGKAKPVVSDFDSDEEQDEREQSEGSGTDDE
T1 sequence (P51532 whole entry): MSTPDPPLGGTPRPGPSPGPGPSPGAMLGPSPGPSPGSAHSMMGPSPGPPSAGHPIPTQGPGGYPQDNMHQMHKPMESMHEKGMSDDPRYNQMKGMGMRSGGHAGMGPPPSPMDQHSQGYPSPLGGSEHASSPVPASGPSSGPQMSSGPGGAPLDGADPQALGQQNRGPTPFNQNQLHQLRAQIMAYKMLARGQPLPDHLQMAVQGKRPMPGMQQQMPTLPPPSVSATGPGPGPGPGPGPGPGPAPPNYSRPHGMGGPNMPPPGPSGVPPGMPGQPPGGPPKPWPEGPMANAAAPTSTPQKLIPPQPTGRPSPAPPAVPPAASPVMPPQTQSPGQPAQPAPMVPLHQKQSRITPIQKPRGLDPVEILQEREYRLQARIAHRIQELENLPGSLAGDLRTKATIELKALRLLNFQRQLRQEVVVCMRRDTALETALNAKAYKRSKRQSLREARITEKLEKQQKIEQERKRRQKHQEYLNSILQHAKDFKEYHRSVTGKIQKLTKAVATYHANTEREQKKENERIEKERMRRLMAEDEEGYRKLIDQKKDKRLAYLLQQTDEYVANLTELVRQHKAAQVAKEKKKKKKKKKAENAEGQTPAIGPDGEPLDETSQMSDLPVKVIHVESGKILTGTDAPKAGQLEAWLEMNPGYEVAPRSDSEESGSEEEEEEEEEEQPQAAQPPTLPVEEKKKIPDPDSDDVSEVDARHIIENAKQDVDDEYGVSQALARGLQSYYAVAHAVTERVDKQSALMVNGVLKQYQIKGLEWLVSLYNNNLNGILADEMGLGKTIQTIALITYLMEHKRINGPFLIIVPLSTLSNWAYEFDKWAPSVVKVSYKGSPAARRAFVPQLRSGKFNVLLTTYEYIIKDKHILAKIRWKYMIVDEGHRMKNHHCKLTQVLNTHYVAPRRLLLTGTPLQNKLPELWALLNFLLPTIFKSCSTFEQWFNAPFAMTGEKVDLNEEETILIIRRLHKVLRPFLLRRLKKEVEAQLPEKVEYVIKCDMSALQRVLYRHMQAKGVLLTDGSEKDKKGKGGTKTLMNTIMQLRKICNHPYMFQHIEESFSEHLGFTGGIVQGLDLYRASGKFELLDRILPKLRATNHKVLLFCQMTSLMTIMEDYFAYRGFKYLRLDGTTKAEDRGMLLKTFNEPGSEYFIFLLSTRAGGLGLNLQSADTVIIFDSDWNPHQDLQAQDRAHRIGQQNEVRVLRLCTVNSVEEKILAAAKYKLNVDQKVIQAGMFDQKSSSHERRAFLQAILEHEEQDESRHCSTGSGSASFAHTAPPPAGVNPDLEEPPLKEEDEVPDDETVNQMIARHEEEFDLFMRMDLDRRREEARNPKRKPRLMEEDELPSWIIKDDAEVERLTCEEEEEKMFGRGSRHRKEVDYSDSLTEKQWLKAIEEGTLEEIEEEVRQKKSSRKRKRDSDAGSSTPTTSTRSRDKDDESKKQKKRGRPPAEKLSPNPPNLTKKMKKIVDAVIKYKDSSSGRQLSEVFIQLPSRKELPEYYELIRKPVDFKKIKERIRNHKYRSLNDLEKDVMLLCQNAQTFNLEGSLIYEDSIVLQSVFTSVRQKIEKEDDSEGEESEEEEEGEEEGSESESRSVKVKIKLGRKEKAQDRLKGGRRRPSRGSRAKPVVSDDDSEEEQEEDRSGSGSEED

The IC50 is the concentration that gives 50% inhibition. Turning to `O=C(NCc1cc2nc(N3CCOc4cc(Cl)cnc43)ccc2cn1)c1ccc2c(c1)S(=O)(=O)CCOC2` [Compound 645], the results for the IC50 on BRG-1 and on BRM were 170 nM and 9.8 nM, respectively. Besides, the “Ratio*” value at BRM was found to be 17.38.

For the compound `C[C@H]1COCc2ccc(C(=O)NCc3cc4nc(N5CCOc6cc(Cl)cnc65)ccc4cn3)cc2S1(=O)=O` [Compound 646], the IC50 at BRG-1 was 247 nM. On BRM, the IC50 was found to be 12.1 nM and the “Ratio*” value turned out to be 20.44.

With `COc1cccc2c1CCN2c1ccc2cnc(CNC(=O)c3ccc4c(c3)S(=O)(=O)CCOC4)cc2n1` [Compound 647], on BRG-1, the IC50 came to 370 nM. Moreover, at BRM, it took 55.9 nM to reach half-maximal inhibition (IC50) and the “Ratio*” value is given as 6.61.

For `C[C@@H]1CN(c2cccc(-c3ccc4cnc(CNC(=O)c5cc6c(cc5F)COCCS6(=O)=O)cc4n3)n2)C[C@H](C)O1` [Compound 648], the IC50 on BRG-1 amounted to 19.4 nM; against BRM, 5 nM. Also, the “Ratio*” value at BRM is given as 3.85.

`CC1CN(c2ccc3cnc(CNC(=O)c4ccc5c(c4)S(=O)(=O)CCOC5)cc3n2)c2ncccc2N1C` (stereo not drawn) [Compound 649]: on BRG-1, the IC50 amounted to 750 nM. Moreover, on BRM, the IC50 was found to be 126 nM and the “Ratio*” value amounted to 5.93.

With `C[C@H]1COCc2ccc(C(=O)NCc3cc4nc(N5CCCc6cc(N(C)C)cnc65)ccc4cn3)cc2S1(=O)=O` [Compound 650], the IC50 at BRG-1 is 115 nM; on BRM, 12.7 nM. The “Ratio*” value at BRM is on record as 9.04.

Consider `COCCc1ccc2c(n1)N(c1ccc3cnc(CNC(=O)c4ccc5c(c4)S(=O)(=O)CCOC5)cc3n1)CCC2` [Compound 651], for which, at BRG-1, the IC50 amounted to 1700 nM. Also, on BRM, the IC50 was found to be 55.3 nM and the “Ratio*” value is reported as 30.77.

Take `O=C(NCc1cc2nc(N3CCCC4CCCC43)ccc2cn1)c1ccc2c(c1)S(=O)(=O)CCOC2` (stereo not drawn) [Compound 652]: the IC50 on BRG-1 was 3190 nM. For the same compound, at BRM, the IC50 worked out at 443 nM and the “Ratio*” value was 7.21.

For the compound `COc1ccc2c(c1)CCN2c1ccc2cnc(CNC(=O)c3ccc4c(c3)S(=O)(=O)CCOC4)cc2n1` [Compound 653], the IC50 at BRG-1 was 1720 nM. Further, on BRM, the IC50 is 230 nM and the “Ratio*” value is reported as 7.47.

For the compound `O=C(NCc1cc2nc(N3CCc4ccc(Cl)cc43)ccc2cn1)c1ccc2c(c1)S(=O)(=O)CCOC2` [Compound 654], the IC50 at BRG-1 came to 2570 nM. In addition, at BRM, the IC50 is 104 nM and the “Ratio*” value is given as 24.78.

With `C[C@@H]1CN(c2cccc(-c3ccc4cnc(CNC(=O)c5ccc6c(c5)S(=O)(=O)CCOC6(C)C)cc4n3)n2)C[C@H](C)O1` [Compound 655], the IC50 on BRG-1 turned out to be 3930 nM. Besides, on BRM, half-maximal inhibition (IC50) required 249 nM and the “Ratio*” value is given as 15.80.

`Cc1cnc2c(c1)CCN2c1ccc2cnc(CNC(=O)c3ccc4c(c3)S(=O)(=O)CCOC4)cc2n1` [Compound 656]: the IC50 at BRG-1 turned out to be 128 nM; at BRM, 12.2 nM. In addition, at BRM, the “Ratio*” value turned out to be 10.50.

`Cc1cc2c(-c3ccc4cnc(CNC(=O)c5ccc6c(c5)S(=O)(=O)CCOC6)cc4n3)cncc2n1C` [Compound 657]: the IC50 at BRG-1 turned out to be 202 nM; against BRM it was 35.3 nM. The “Ratio*” value on BRM was 5.73.

Take `CCc1ccc2c(n1)N(c1ccc3cnc(CNC(=O)c4ccc5c(c4)S(=O)(=O)CCOC5)cc3n1)CCO2` [Compound 658]: the concentration for half-maximal inhibition (IC50) on BRG-1 was 342 nM; against BRM, 7 nM. Moreover, the “Ratio*” value at BRM was determined as 48.50.

With `O=C(NCc1cc2nc(N3CCCc4ccc(C5CCCO5)nc43)ccc2cn1)c1ccc2c(c1)S(=O)(=O)CCOC2` (stereo not drawn) [Compound 659], the IC50 on BRG-1 was 1040 nM. At BRM, the IC50 is 42.7 nM and the “Ratio*” value is listed as 24.28.

`COCc1cc2c(nc1Cl)N(c1ccc3cnc(CNC(=O)c4ccc5c(c4)S(=O)(=O)CCOC5)cc3n1)CCC2` [Compound 660]: the IC50 at BRG-1 came out at 59 nM; against BRM, 7.2 nM. In addition, on BRM, the “Ratio*” value came to 8.17.

As to `C[C@@H]1Cc2ccc(-c3ccc4cnc(CNC(=O)c5ccc6c(c5)S(=O)(=O)CCOC6)cc4n3)nc2N(C)C1` [Compound 661], the IC50 on BRG-1 was 301 nM. At BRM, the IC50 was 43.9 nM and the “Ratio*” value turned out to be 6.86.

For `C[C@H]1Cc2ccc(-c3ccc4cnc(CNC(=O)c5ccc6c(c5)S(=O)(=O)CCOC6)cc4n3)nc2N(C)C1` [Compound 662], the values for the IC50 on BRG-1 and against BRM were 173 nM and 36.7 nM, respectively. The “Ratio*” value on BRM turned out to be 4.71.

For `CCc1cnc2c(c1)OCCN2c1ccc2cnc(CNC(=O)c3ccc4c(c3)S(=O)(=O)CCOC4)cc2n1` [Compound 665], on BRG-1, the IC50 came out at 86.8 nM. At BRM, inhibition was half-maximal at 6.4 nM (IC50) and the “Ratio*” value is on record as 13.54.

As for `O=C(NCc1cc2nc(N3CCCc4cc(N5CCC5)cnc43)ccc2cn1)c1ccc2c(c1)S(=O)(=O)CCOC2` [Compound 666], the IC50 at BRG-1 stood at 268 nM; against BRM, 24.2 nM. For the same compound, the “Ratio*” value at BRM is given as 11.06.

As for `C[C@@H]1CN(c2cccc(-c3ccc4cnc(CNC(=O)c5ccc6c(c5)S(=O)(=O)[C@@H](C)CN6C5CC5)cc4n3)n2)C[C@H](C)O1` [Compound 667], the IC50 on BRG-1 was found to be 517 nM. Also, at BRM, the IC50 was 39 nM and the “Ratio*” value came out at 13.24.

`CO[C@@H]1C[C@@H]1N(C)c1cccc(-c2ccc3cnc(CNC(=O)c4ccc5c(c4)S(=O)(=O)[C@@H](C)COC5)cc3n2)n1` [Compound 668]: at BRG-1, the IC50 turned out to be 73.4 nM. In addition, at BRM, the midpoint of inhibition, the IC50, lay at 8.4 nM and the “Ratio*” value was determined as 8.70.

Take `CO[C@H]1C[C@H]1N(C)c1cccc(-c2ccc3cnc(CNC(=O)c4ccc5c(c4)S(=O)(=O)[C@@H](C)COC5)cc3n2)n1` [Compound 669]: on BRG-1, the IC50 is 324 nM. Further, on BRM, the half-maximal inhibitory concentration (IC50) was 17.1 nM and the “Ratio*” value is 18.96.

As for `CO[C@H]1C[C@@H]1N(C)c1cccc(-c2ccc3cnc(CNC(=O)c4ccc5c(c4)S(=O)(=O)[C@@H](C)COC5)cc3n2)n1` [Compound 670], on BRG-1, the IC50 was 88.3 nM. Further, at BRM, the IC50 turned out to be 10.1 nM and the “Ratio*” value is listed as 8.79.

Regarding `CO[C@@H]1C[C@H]1N(C)c1cccc(-c2ccc3cnc(CNC(=O)c4ccc5c(c4)S(=O)(=O)[C@@H](C)COC5)cc3n2)n1` [Compound 672], the IC50 turned out to be 209 nM at BRG-1 and 15.2 nM against BRM. The “Ratio*” value on BRM came out at 13.70.

For the compound `COCCn1cc2c(-c3ccc4cnc(CNC(=O)c5ccc6c(c5)S(=O)(=O)CCOC6)cc4n3)cccc2n1` [Compound 673], the IC50 at BRG-1 was found to be 4990 nM. For the same compound, on BRM, the IC50 amounted to 568 nM and the “Ratio*” value is 8.79.

`O=C(NCc1cc2nc(N3CCCc4ccc(OCC5COC5)cc43)ccc2cn1)c1ccc2c(c1)S(=O)(=O)CCOC2` [Compound 676]: the IC50 on BRG-1 was 35.5 nM. Also, at BRM, half-maximal inhibition (IC50) was put at 3 nM and the “Ratio*” value is recorded as 11.70.

In the case of `O=C(NCc1cc2nc(N3CCCc4c(OC5CC5)ccnc43)ccc2cn1)c1ccc2c(c1)S(=O)(=O)CCOC2` [Compound 677], the IC50 on BRG-1 was 35.7 nM; at BRM, 3.8 nM. For the same compound, on BRM, the “Ratio*” value came out at 9.28.

`O=C(NCc1cc2nc(-c3ccc4c(n3)C(F)(F)CC4)ccc2cn1)c1ccc2c(c1)S(=O)(=O)CCOC2` [Compound 678]: the IC50 at BRG-1 was 549 nM. For the same compound, at BRM, half-maximal inhibition (IC50) required 54.5 nM and the “Ratio*” value came out at 10.07.

`Cc1ccc2c(n1)N(c1ccc3cnc(CNC(=O)c4ccc5c(c4)S(=O)(=O)CCOC5)cc3c1)CCO2` [Compound 679]: the IC50 on BRG-1 is 423 nM; against BRM, 18.9 nM. Also, the “Ratio*” value at BRM was 22.41.

With `Cc1ccc2c(n1)N(c1ccc3cnc(CNC(=O)c4ccc5c(c4)S(=O)(=O)[C@@H](C)COC5)cc3c1)CCO2` [Compound 680], the values for the IC50 at BRG-1 and against BRM were 969 nM and 32.7 nM, respectively. Further, the “Ratio*” value on BRM is 29.69.

Consider `Cc1ccnc2c1N(C)CCN2c1ccc2cnc(CNC(=O)c3ccc4c(c3)S(=O)(=O)CCOC4)cc2n1` [Compound 681], for which the IC50 at BRG-1 came out at 315 nM; on BRM it was 33 nM. Moreover, on BRM, the “Ratio*” value was 9.53.

With `CC(F)(F)c1ccc2c(c1)N(c1ccc3cnc(CNC(=O)c4ccc5c(c4)S(=O)(=O)CCOC5)cc3n1)CCO2` [Compound 682], the values for the IC50 at BRG-1 and on BRM were 164 nM and 10.3 nM, respectively. The “Ratio*” value on BRM amounted to 15.88.

With `COc1cc2c(nc1C1CC1)N(c1ccc3cnc(CNC(=O)c4ccc5c(c4)S(=O)(=O)CCOC5)cc3n1)CCC2` [Compound 683], the values for the IC50 at BRG-1 and against BRM were 795 nM and 76.3 nM, respectively. In addition, the “Ratio*” value at BRM was found to be 10.42.

For `O=C(NCc1cc2nc(N3CCN(C4CC4)c4cccnc43)ccc2cn1)c1ccc2c(c1)S(=O)(=O)CCOC2` [Compound 686], on BRG-1, the 50% inhibitory concentration (IC50) came to 199 nM. Also, on BRM, 14.3 nM corresponded to half-maximal inhibition (IC50) and the “Ratio*” value turned out to be 13.91.

As to `C[C@@H]1CN(c2cccc(-c3ccc4cnc(CNC(=O)c5ccc6c(c5)S(=O)(=O)[C@@H](C)CO6)cc4n3)n2)C[C@H](C)O1` [Compound 687], the IC50 on BRG-1 was determined as 360 nM; on BRM, 19.7 nM. On BRM, the “Ratio*” value came to 18.34.

As for `Cn1cnc2c1CCCN2c1ccc2cnc(CNC(=O)c3ccc4c(c3)S(=O)(=O)CCOC4)cc2n1` [Compound 688], the IC50 came out at 1710 nM at BRG-1 and 257 nM against BRM. Moreover, on BRM, the “Ratio*” value amounted to 6.65.

For the compound `O=C(NCc1cc2nc(N3CCCc4ccc([C@@H]5CC5(F)F)nc43)ccc2cn1)c1ccc2c(c1)S(=O)(=O)CCOC2` [Compound 689], on BRG-1, the IC50 turned out to be 882 nM. Also, at BRM, it took 40.2 nM to reach half-maximal inhibition (IC50) and the “Ratio*” value was 21.94.
